Results as given in patent US8829007B2 (priority 2009, dated 2014).
Structures can show the parent of a compound that is named as a salt. Where two headings read alike, the source gives them in different places.

Assays:
[1] = test system: influenza A virus (A/PR/8/34); assay: microbe, parasite or virus in culture; type: cell-based
[2] = test system: A/PR/8/34 influenza virus; assay: microbe, parasite or virus in culture; type: cell-based
[3] = mean all, MDCK cells infected with A/PR/8/34, cell protection (CPE), read-out: IC50
[4] = mean all, bDNA viral RNA in MDCK cells infected with A/PR/8/34, read-out: EC50
[5] = Influenza A virus, PR/8, MDCK, mean all, A/PR/8/34 infected MDCK cells, CPE assay, read-out: IC50
[6] = Influenza A virus, PR/8, MDCK, mean all, A/PR/8/34 influenza virus in MDCK cells, bDNA assay, read-out: EC50
[7] = Influenza A virus, PR/8, MDCK, MDCK cells infected with A/PR/8/34, cell protection (CPE), read-out: IC50 (mean all)
[8] = Influenza A virus, PR/8, MDCK, MDCK cells infected with A/PR/8/34, bDNA viral RNA, read-out: EC50 (mean all)
[9] = Influenza A virus, PR/8, MDCK, MDCK cells infected with A/PR/8/34, survival of infected cells, class symbols, read-out: IC50 (mean all)
[10] = Influenza A virus, PR/8, MDCK, MDCK cells infected with A/PR/8/34, replication of influenza virus (viral RNA, bDNA), class symbols, read-out: EC50 (mean all)
[11] = Influenza A virus, PR/8, MDCK, CPE assay, A/PR/8/34 infected MDCK cells, class symbols, read-out: IC50 (mean all)
[12] = Influenza A virus, PR/8, MDCK, bDNA assay, A/PR/8/34 influenza virus replication in MDCK cells, class symbols, read-out: EC50 (mean all)

CC(C)OC(=O)NC1CCCC(Nc2nc(-c3c[nH]c4ncc(Cl)cc34)ncc2F)C1 (stereo not shown) [Compound 697]
IC50 [1, 3]: < 5 µM | EC50 [2, 4]: < 5 µM

COC1CN(C(=O)C2CCCC(Nc3nc(-c4c[nH]c5ncc(Cl)cc45)ncc3F)C2)C1 (stereo not shown) [Compound 720]
IC50 [1, 3]: < 5 µM | EC50 [2, 4]: < 5 µM

CC(C)CC(=O)N1CCC[C@@H](Nc2nc(-c3c[nH]c4ncc(Cl)cc34)ncc2F)C1 [Compound 318]
IC50 [1, 5]: > 20 µM | EC50 [2, 6]: < 5 µM

OC1CCCC1Nc1nc(-c2c[nH]c3ncc(Cl)cc23)ncc1F (stereo not shown) [Compound 14, 2-(2-(5-chloro-1H-pyrrolo[2,3-b]pyridin-3-yl)-5-fluoropyrimidin-4-ylamino)cyclopentanol]
IC50 [1, 7]: 5 to 20 µM | EC50 [2, 8]: < 5 µM

COc1ccc(C(=O)N2CCC[C@H](CNc3nc(-c4c[nH]c5ncc(Cl)cc45)ncc3F)C2)cc1OC [Compound 109, (R)-(3-((2-(5-chloro-1H-pyrrolo[2,3-b]pyridin-3-yl)-5-fluoropyrimidin-4-ylamino)methyl)piperidin-1-yl)(3,4-dimethoxyphenyl)methanone]
IC50 [1, 7]: < 5 µM | EC50 [2, 8]: < 5 µM

O=C1NCCCC[C@@H]1Nc1nc(-c2c[nH]c3ncc(Cl)cc23)ncc1F [Compound 417]
IC50 [1, 5]: < 5 µM | EC50 [2, 6]: < 5 µM

CNc1ccccc1C(=O)N1CCC[C@H](CNc2nc(-c3c[nH]c4ncc(Cl)cc34)ncc2F)C1 [Compound 112, (R)-(3-((2-(5-chloro-1H-pyrrolo[2,3-b]pyridin-3-yl)-5-fluoropyrimidin-4-ylamino)methyl)piperidin-1-yl)(2-(methylamino)phenyl)methanone]
IC50 [1, 7]: < 5 µM | EC50 [2, 8]: < 5 µM

O=S(=O)(c1ccccc1)N1CCC[C@H](CNc2nc(-c3c[nH]c4ncc(Cl)cc34)ncc2F)C1 [Compound 87, (R)-2-(5-chloro-1H-pyrrolo[2,3-b]pyridin-3-yl)-5-fluoro-N-((1-(phenylsulfonyl)piperidin-3-yl)methyl)pyrimidin-4-amine]
IC50 [1, 7]: < 5 µM | EC50 [2, 8]: < 5 µM

CC(C)(C)NC(=O)N1CCC[C@H](CNc2nc(-c3c[nH]c4ncc(Cl)cc34)ncc2F)C1 [Compound 128, (R)—N-tert-butyl-3-((2-(5-chloro-1H-pyrrolo[2,3-b]pyridin-3-yl)-5-fluoropyrimidin-4-ylamino)methyl)piperidine-1-carboxamide]
IC50 [1, 7]: < 5 µM | EC50 [2, 8]: < 5 µM

CCNC(=O)N1CCOCC1CNc1nc(-c2c[nH]c3ncc(Cl)cc23)ncc1F (stereo not shown) [Compound 535, 3-((2-(5-chloro-1H-pyrrolo[2,3-b]pyridin-3-yl)-5-fluoropyrimidin-4-ylamino)methyl)-N-ethylmorpholine-4-carboxamide]
IC50 [1, 9]: 5 to 20 µM | EC50 [2, 10]: > 10 µM

CCCCS(=O)(=O)N1CCC[C@H](Nc2nc(-c3c[nH]c4ncc(Cl)cc34)ncc2F)C1 [Compound 390, (S)—N-(1-(butylsulfonyl)piperidin-3-yl)-2-(5-chloro-1H-pyrrolo[2,3-b]pyridin-3-yl)-5-fluoropyrimidin-4-amine]
IC50 [1, 5]: < 5 µM | EC50 [2, 6]: < 5 µM

CNC(=O)N[C@H]1CCC[C@H](Nc2nc(-c3c[nH]c4ncc(Cl)cc34)ncc2F)C1 (relative stereo) [Compound 458, 1-[trans-3-[[2-(5-chloro-1H-pyrrolo[2,3-b]pyridin-3-yl)-5-fluoro-pyrimidin-4-yl]amino]cyclohexyl]-3-methyl-urea]
IC50 [1, 5]: < 5 µM | EC50 [2, 6]: < 5 µM

O=C(NC1CCCC(Nc2nc(-c3c[nH]c4ncc(Cl)cc34)ncc2F)C1)C1CC1 (stereo not shown) [Compound 684]
IC50 [1, 3]: < 5 µM | EC50 [2, 4]: < 5 µM

CN(C)C(=O)C(C)(C)N1CCC[C@H](Nc2nc(-c3c[nH]c4ncc(Cl)cc34)ncc2F)C1 [Compound 600]
IC50 [1, 11]: < 5 µM | EC50 [2, 12]: < 5 µM

C[C@]1(C(=O)O)CCCC[C@@H]1Nc1nc(-c2c[nH]c3ncc(Cl)cc23)ncc1F (stereo in doubt) [Compound 643, Trans-2-[[2-(5-chloro-1H-pyrrolo[2,3-b]pyridin-3-yl)-5-fluoro-pyrimidin-4-yl]amino]-1-methyl-cyclohexanecarboxylic acid]
IC50 [1, 11]: < 5 µM | EC50 [2, 12]: < 5 µM

COCCNC(=O)C(C)(C)N1CCC[C@H](Nc2nc(-c3c[nH]c4ncc(Cl)cc34)ncc2F)C1 [Compound 601]
IC50 [1, 11]: < 5 µM | EC50 [2, 12]: < 5 µM

CS(=O)(=O)N1CCC[C@H](Nc2nc(-c3c[nH]c4ncc(Cl)cc34)ncc2F)C1 [Compound 389, (S)-2-(5-chloro-1H-pyrrolo[2,3-b]pyridin-3-yl)-5-fluoro-N-(1-(methylsulfonyl)piperidin-3-yl)pyrimidin-4-amine]
IC50 [1, 5]: < 5 µM | EC50 [2, 6]: < 5 µM

CCC1(O)CCCC(Nc2nc(-c3c[nH]c4ncc(Cl)cc34)ncc2F)C1 (stereo not shown) [Compound 626]
IC50 [1, 11]: < 5 µM | EC50 [2, 12]: < 5 µM

O=C(c1nccs1)N1CCCC(CNc2nc(-c3c[nH]c4ncc(Cl)cc34)ncc2F)C1 (stereo not shown) [Compound 186]
IC50 [1, 7]: < 5 µM | EC50 [2, 8]: < 5 µM

CC(C)(CO)C(=O)N[C@@H]1CCC[C@H](Nc2nc(-c3c[nH]c4ncc(Cl)cc34)ncc2F)C1 [Compound 650, N-[(1R,3S)-3-[[2-(5-chloro-1H-pyrrolo[2,3-b]pyridin-3-yl)-5-fluoro-pyrimidin-4-yl]amino]cyclohexyl]-3-hydroxy-2,2-dimethyl-propanamide hydrochloride]
IC50 [1, 11]: < 5 µM | EC50 [2, 12]: < 5 µM

N=C(N)N1CCC[C@H](Nc2nc(-c3c[nH]c4ncc(Cl)cc34)ncc2F)C1 [Compound 881]
IC50 ([1]; Influenza A virus, PR/8, MDCK, mean all, A/PR/8/34 infected MDCK cells, cell protection (CPE), read-out: IC50): > 10 µM | EC50 ([2]; Influenza A virus, PR/8, mean all, A/PR/8/34 influenza virus replication, bDNA, read-out: EC50): > 3.3 µM

O=C(c1cc(F)ccc1F)N1CCC[C@H](CNc2nc(-c3c[nH]c4ncc(Cl)cc34)ncc2F)C1 [Compound 151]
IC50 [1, 7]: < 5 µM | EC50 [2, 8]: < 5 µM

CC(C)S(=O)(=O)N1CCC[C@H](Nc2nc(-c3c[nH]c4ncc(Cl)cc34)ncc2F)C1 [Compound 394, (S)-2-(5-chloro-1H-pyrrolo[2,3-b]pyridin-3-yl)-5-fluoro-N-(1-(isopropylsulfonyl)-piperidin-3-yl)pyrimidin-4-amine]
IC50 [1, 5]: < 5 µM | EC50 [2, 6]: < 5 µM

CCC(=O)N1CCCC[C@@H]1CNc1nc(-c2c[nH]c3ncc(Cl)cc23)ncc1F [Compound 208, (R)-1-(2-((2-(5-chloro-1H-pyrrolo[2,3-b]pyridin-3-yl)-5-fluoropyrimidin-4-ylamino)methyl)piperidin-1-yl)propan-1-one]
IC50 [1, 7]: < 5 µM | EC50 [2, 8]: < 5 µM

CCOC(=O)N1CCCC[C@H]1CNc1nc(-c2c[nH]c3ncc(Cl)cc23)ncc1F [Compound 171, (S)-ethyl 2-((2-(5-chloro-1H-pyrrolo[2,3-b]pyridin-3-yl)-5-fluoropyrimidin-4-ylamino)methyl)piperidine-1-carboxylate]
IC50 [1, 7]: > 20 µM | EC50 [2, 8]: 5 to 10 µM

O=C(CN1CCCCC1)NC1CCCC(Nc2nc(-c3c[nH]c4ncc(Cl)cc34)ncc2F)C1 (stereo not shown) [Compound 729]
IC50 [1, 3]: < 5 µM | EC50 [2, 4]: < 5 µM

N[C@H]1CCC[C@@H](Nc2nc(-c3c[nH]c4ncc(Cl)cc34)ncc2F)C1 [Compound 542, (1R,3S)—N1-[2-(5-chloro-1H-pyrrolo[2,3-b]pyridin-3-yl)-5-fluoro-pyrimidin-4-yl]cyclohexane-1,3-diamine]
IC50 [1, 9]: 5 to 20 µM | EC50 [2, 10]: 5 to 10 µM

NC(=O)N1CC(Nc2nc(-c3c[nH]c4ncc(Cl)cc34)ncc2F)C1 [Compound 512]
IC50 [1, 9]: > 20 µM | EC50 [2, 10]: 5 to 10 µM

CC1(O)CCC[C@H](Nc2nc(-c3c[nH]c4ncc(Cl)cc34)ncc2F)C1 (stereo partly shown) [Compound 572]
IC50 ([1]; MDCK cells infected with A/PR/8/34, survival of infected cells, class symbols, read-out: IC50 (mean all)): < 5 µM | EC50 ([2]; MDCK cells infected with A/PR/8/34, replication of influenza virus (viral RNA, bDNA), class symbols, read-out: EC50 (mean all)): < 5 µM

O=C(c1ccc2c(c1)OCC2)N1CCC[C@H](CNc2nc(-c3c[nH]c4ncc(Cl)cc34)ncc2F)C1 [Compound 145, (R)-(3-((2-(5-chloro-1H-pyrrolo[2,3-b]pyridin-3-yl)-5-fluoropyrimidin-4-ylamino)methyl)piperidin-1-yl)(2,3-dihydrobenzofuran-6-yl)methanone]
IC50 [1, 7]: < 5 µM | EC50 [2, 8]: < 5 µM

CC1(C(=O)NC2CCCC(Nc3nc(-c4c[nH]c5ncc(Cl)cc45)ncc3F)C2)CCCO1 (stereo not shown) [Compound 682]
IC50 [1, 3]: < 5 µM | EC50 [2, 4]: < 5 µM

O=C(C1CCC1)N1CCC[C@@H](Nc2nc(-c3c[nH]c4ncc(Cl)cc34)ncc2F)C1 [Compound 319]
IC50 [1, 5]: > 20 µM | EC50 [2, 6]: < 5 µM

O=C(C(O)CO)N1CCCC(Nc2nc(-c3c[nH]c4ncc(Cl)cc34)ncc2F)C1 (stereo not shown) [Compound 623]
IC50 ([1]; CPE assay, A/PR/8/34 infected MDCK cells, class symbols, read-out: IC50 (mean all)): < 5 µM | EC50 ([2]; bDNA assay, A/PR/8/34 influenza virus replication in MDCK cells, class symbols, read-out: EC50 (mean all)): < 5 µM

CC[C@H](O)CN1CCCC(Nc2nc(-c3c[nH]c4ncc(Cl)cc34)ncc2F)C1 (stereo partly shown) [Compound 538]
IC50 [1, 9]: < 5 µM | EC50 [2, 10]: < 5 µM

O=C(N[C@@H]1CCC[C@H](Nc2nc(-c3c[nH]c4ncc(Cl)cc34)ncc2F)C1)C1CNCCO1 (stereo partly drawn) [Compound 637, N-[(1R,3S)-3-[[2-(5-chloro-1H-pyrrolo[2,3-b]pyridin-3-yl)-5-fluoro-pyrimidin-4-yl]amino]cyclohexyl]morpholine-2-carboxamide bishydrochloride]
IC50 [1, 11]: < 5 µM | EC50 [2, 12]: < 5 µM
